According to patent US20210228734A1, “CONJUGATES COMPRISING A TEMPERATURE-RESPONSIVE POLYMER AND A LIGAND CAPABLE OF BINDING ERGOSTEROL” (L V PRASAD EYE INSTITUTE, priority 2018, published 2021):

What was measured:
C. albicans SC5314 = assay: Minimal inhibitory concentration (MIC), C. albicans SC5314; assay type: cell-based
Procedure: (§1) C. albicans cells, laboratory strain SC5314 or ATCC90028, were cultured on solid BHI (Oxoid) medium at 37° C. for 24 hours and stored at 4° C. for up to one month. Prior to experiments, a colony of C. albicans was sub-cultured into liquid BHI medium overnight at 37° C.
(§2) C. albicans cells, laboratory strain SC5314 or ATCC90028, were cultured on solid BHI (Oxoid) medium at 37° C. for 24 hours and stored at 4° C. for up to one month. Prior to experiments, a colony of C. albicans was sub-cultured into liquid BHI medium overnight at 37° C. Overnight cultures of C. albicans were adjusted to an optical density at 600 nm of 0.1 and incubated with Amphotericin polymers, which were serially diluted 1:2 from 2500-2.44 μg/ml, for 16 hours in a 96 well plate. The concentration of polymer at which there was no visible growth was determined to be the MIC. C. albicans (Robin) ATCC200955, C. tropicalis ATCC200956, A. flavus ATCC16883 and F. keratoplasticum ATCC36031 were similarly cultured on solid Sabrauds (Oxoid) medium at 37° C. for 24 hours and stored at 4° C. for up to one month. Prior to experiments, colonies were sub-cultured into liquid Sabrauds medium overnight at 37° C. All liquid cultures were static apart from A. flavus which was incubated shaking at 100 rpm.

[1] = tested on: rabbit limbal epithelial cells; assay: Rabbit limbal epithelial cell viability (Alamar Blue); conditions: p<0.01
Procedure: Tissue was immersed in 2.5 mg ml^−1 (w/v) dispase II solution in DMEM for 1 hour at 37° C. The limbal rims were subsequently scraped gently using forceps to remove the epithelial cells. The dispase-cell suspension was centrifuged at 200 g for 5 minutes and re-suspended in culture medium containing DMEM: Ham's F12 (1:1) supplemented with 10% foetal calf serum, 100 U ml^−1 penicillin and 100 U ml^−1 streptomycin, 2.5 μg ml^−1 Amp−B, 5 μg ml^−1 insulin and 10 ng ml^−1 epidermal growth factor. Cells were cultured with irradiated 3T3-mouse fibroblasts at a cell density of 2.4×10^4 cells cm^−2 in culture medium. Cells were not used beyond passage 3. For experiments, cells were seeded into 24 well-plates at 5×10^4 cells per well and cultured for 24 hours.
Prior to determining the viability of rabbit limbal epithelial cells, cells were washed 3× with phosphate-buffered saline (PBS, 0.01M, pH 7.4) to remove residual antimicrobials. […] Epithelial cell/cornea viability was determined using Alamar Blue reagent (5 μg ml^−1) dissolved in PBS. Cells/corneas were incubated with Alamar Blue for 30 minutes and the fluorescence of the solution determined at 570 nm excitation and 585 nm emission (Infinite 200, Tecan). Data for each polymer is presented as percentage viability relative to an untreated control. […]

C. tropicalis ATCC200956 = assay: Minimal inhibitory concentration (MIC), C. tropicalis ATCC200956; assay type: cell-based; conditions: C. tropicalis ATCC200956 (Amp-B non-sensitive); Table 3b
Procedure: as §2, with “Overnight cultures of C. albicans were adjusted to an optical density at 600 nm of 0.1 and incubated with Amphotericin polymers, which were serially diluted 1:2 from 2500-2.44 μg/ml, for 16 hours in a 96 well plate.” left out

human donor corneas = conditions: 2.5 ma ml^−1, Alamar Blue, p<0.01
Procedure: Epithelial cell/cornea viability was determined using Alamar Blue reagent (5 μg ml^−1) dissolved in PBS. Cells/corneas were incubated with Alamar Blue for 30 minutes and the fluorescence of the solution determined at 570 nm excitation and 585 nm emission (Infinite 200, Tecan). Data for each polymer is presented as percentage viability relative to an untreated control. Each assay was performed in triplicate and data represents the mean±SD from three independent experiments.
The examination of the cytotoxicity was further examined on ex vivo human corneas.

[2] = physiological pH; stated as well known; cited from earlier work
C. albicans ATCC90028 = assay: Minimal inhibitory concentration (MIC), C. albicans ATCC90028; assay type: cell-based
Procedure: as §1, §2

[3] = tested on: C. albicans (Robin) ATCC200955; assay: Minimal inhibitory concentration (MIC), C. albicans ATCC200955; assay type: cell-based; conditions: C. albicans ATCC200955 (Amp-B non-sensitive); Table 3b
Procedure: as §2

[4] = tested on: Fusarium keratoplasticum ATCC36031; assay: Minimal inhibitory concentration (MIC), F. keratoplasticum ATCC36031; assay type: cell-based; conditions: F. keratoplasticum ATCC 36031
Procedure: as §2

[5] = tested on: Aspergillus flavus ATCC16883; assay: Minimal inhibitory concentration (MIC), A. flavus ATCC16883; assay type: cell-based; conditions: A. flavus ATCC 16883
Procedure: as §2

[6] = literature range; cited from earlier work
[7] = from weight based MIC and molar density

C[C@@H]1[C@H](O)[C@@H](C)/C=C/C=C/C=C/C=C/C=C/C=C/C=C/[C@H](O[C@@H]2O[C@H](C)[C@@H](O)[C@H](N)[C@@H]2O)C[C@@H]2O[C@](O)(C[C@@H](O)C[C@@H](O)[C@H](O)CC[C@@H](O)C[C@@H](O)CC(=O)O[C@H]1C)C[C@H](O)[C@H]2C(=O)O [Amp-B, amphotericin B]
Weight based MIC (C. albicans SC5314; Table 3b): 0.4 µg·mL | Molar MIC (C. albicans SC5314; from weight based MIC and molar density of Amp-B groups): 500 µM | Metabolic activity of cells compared with the cell only control ([1]; 100 μg ml^−1, 24 hours): 42.8±13.9% | Decrease in epithelial cell viability relative to a cell only control ([1]; 1 mg ml^−1, 24 hours): approximately 91.7% | Weight based MIC (C. tropicalis ATCC200956): >2500 µg·mL | Loss of corneal viability (human donor corneas): approximately 95% | Solubility in water and saline solution [2]: insoluble | Weight based MIC (C. albicans ATCC90028; Table 3b): 0.5 µg·mL | Molar MIC (C. albicans ATCC90028; [7]): 4800 µM | Weight based MIC [3]: >2500 µg·mL | Weight based MIC ([4]; Table 3b): 0.2 µg·mL | Molar MIC [4, 7]: 250 µM | Weight based MIC ([5]; Table 3b): 1.5 µg·mL | Molar MIC [5, 7]: 1800 µM | MIC for Amp-B [6]: 0.625 to 4 µg/mL
